Results reported in patent US20170152258A9, “Substituted Pyridopyrazines as Syk Inhibitors” (HUTCHISON MEDIPHARMA LIMITED, priority 2012, published 2017).
“And” between values parts separate entries of the source, which are not always exact repeats. Identical values can stand only once.

Experiments:
Syk kinase = Syk kinase (Homo sapiens, UniProt P43405); experiment: SYK Enzymatic Assay (Z-LYTE Tyr 2 peptide); type: biochemical; conditions: 8 concentrations 1 μM down to 0.0003 μM
Procedure, shortened: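 Z-LYTE format using Tyr 2 peptide. After the 1 h room-temperature kinase reaction, development reagent was added for 1 h, then stop reagent. Fluorescence was read at 445 and 520 nm. Compounds were tested at 8 concentrations, 1 μM down to 0.0003 μM (1:3 dilutions).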

Flt-3 = target: T1, Flt-3 (Homo sapiens, UniProt P36888); experiment: Z-Lyte Kinase Assay of Flt-3; type: biochemical; conditions: Flt3 kinase
T1 sequence (P36888 27-993): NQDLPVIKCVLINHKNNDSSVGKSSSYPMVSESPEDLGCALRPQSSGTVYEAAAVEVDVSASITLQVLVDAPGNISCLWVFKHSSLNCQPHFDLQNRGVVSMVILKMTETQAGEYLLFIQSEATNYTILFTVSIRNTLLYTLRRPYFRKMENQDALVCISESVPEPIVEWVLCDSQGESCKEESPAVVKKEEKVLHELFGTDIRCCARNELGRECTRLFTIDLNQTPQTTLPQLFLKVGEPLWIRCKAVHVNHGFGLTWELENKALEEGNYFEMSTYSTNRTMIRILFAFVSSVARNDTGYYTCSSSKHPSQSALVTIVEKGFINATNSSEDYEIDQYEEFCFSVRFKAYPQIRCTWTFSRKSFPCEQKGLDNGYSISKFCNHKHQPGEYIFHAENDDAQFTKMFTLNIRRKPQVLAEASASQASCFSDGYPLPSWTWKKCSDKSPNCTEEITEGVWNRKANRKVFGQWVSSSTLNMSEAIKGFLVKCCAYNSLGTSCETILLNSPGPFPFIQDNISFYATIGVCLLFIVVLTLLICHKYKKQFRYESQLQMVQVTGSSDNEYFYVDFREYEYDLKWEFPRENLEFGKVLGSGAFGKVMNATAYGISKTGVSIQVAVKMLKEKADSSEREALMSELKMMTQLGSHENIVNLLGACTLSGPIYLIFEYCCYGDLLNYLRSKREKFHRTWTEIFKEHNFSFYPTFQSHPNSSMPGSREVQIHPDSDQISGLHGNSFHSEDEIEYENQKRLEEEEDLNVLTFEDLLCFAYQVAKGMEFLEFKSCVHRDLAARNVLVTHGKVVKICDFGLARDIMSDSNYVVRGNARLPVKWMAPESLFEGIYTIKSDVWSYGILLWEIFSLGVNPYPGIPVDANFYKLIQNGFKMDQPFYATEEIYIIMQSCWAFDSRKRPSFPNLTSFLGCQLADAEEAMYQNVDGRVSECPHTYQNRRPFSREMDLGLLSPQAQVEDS
Procedure: Z-Lyte Kinase Assay of Flt-3:
Serially dilute the test compounds to 4 folds of the concentrations desired, keeping the DMSO concentration at 8%. The final concentrations were 3, 1, 0.33, 0.11, 0.037, 0.012, 0.004, 0.0014 μM, and the final concentration of DMSO was 2%.
Prepare Kinase/Peptide Mixture by diluting the kinase to 0.12 μg/mL and the Z-LYTE™ Tyr 2 peptide to 4 μM in 1.33× Kinase Buffer. Mix gently by pipetting.
Prepare ATP Solution by diluting the 10 mM of ATP in 1.33× Kinase Buffer to 1.88 mM.
• a. Add 2.5 μL of 4× test Cpds to each well except C1, C2, C3 wells • Add 2.5 μL of 8% DMSO to C1, C2, C3 wells • b. Put the 384-plate on ice • c. Add 5 μL of P/K mixture to each test Cpd wells and C1, C2 wells • d. Add 5 μL of PP Solution to C3 well • e. Add 2.5 μL of 1.33× kinase buffer to C1 and C3 wells • f. Add 2.5 μL of 4×ATP Solution to each test Cpd wells and C2 well, respectively. • Shake the plate for 30 Sec and centrifuge (1500 rpm, 1 min) • g. Seal the plate to protect from the light and incubate the plate for 1 hour at RT (25-30° C.).
• a. Add 5 μL of the Development solution to all wells • b. Shake the plate for 30 Sec and centrifuge (1500 rpm, 1 min) • c. Seal the plate to protect from the light and incubate the plate for 1 hour at RT (25-30° C.).
• a. […]
IC50 Value: determined with add-in software for Microsoft Excel, XLfit™ (version 2.0) from ID Business Solutions (Guildford, UK)

Row | IC50 (Syk kinase) | IC50 (Flt-3) [nM] | SMILES
1 | 32 nM and 28 nM | 880 | CC(C)(O)c1ccc(-c2cc3nccnc3c(OC[C@@H]3CN(S(C)(=O)=O)CCO3)n2)cc1 [Compound 219]
2 | 30 nM | 885 | CC(=O)N1CCO[C@H](COc2nc(-c3ccc4c(c3)CCOC4(C)C)cc3nccnc23)C1 [Compound 300]
